Laboratory results: US12157746B2, “Tetrahydro-1H-pyrazino[2,1-a]isoindolylquinoline compounds for the treatment of autoimmune disease” (F. HOFFMANN-LA ROCHE AG, priority 2018, dated 2024)

Each compound was assayed against T1, human TLR9 (Homo sapiens, UniProt Q9NR96) (assay: HEK293-Blue-hTLR-9 cells assay). Conditions: HEK293-Blue-hTLR9 cells, ODN2006 stimulation, 20 hrs, SEAP reporter; read-out: HEK/hTLR9 IC50.
T1 sequence (Q9NR96 26-1032): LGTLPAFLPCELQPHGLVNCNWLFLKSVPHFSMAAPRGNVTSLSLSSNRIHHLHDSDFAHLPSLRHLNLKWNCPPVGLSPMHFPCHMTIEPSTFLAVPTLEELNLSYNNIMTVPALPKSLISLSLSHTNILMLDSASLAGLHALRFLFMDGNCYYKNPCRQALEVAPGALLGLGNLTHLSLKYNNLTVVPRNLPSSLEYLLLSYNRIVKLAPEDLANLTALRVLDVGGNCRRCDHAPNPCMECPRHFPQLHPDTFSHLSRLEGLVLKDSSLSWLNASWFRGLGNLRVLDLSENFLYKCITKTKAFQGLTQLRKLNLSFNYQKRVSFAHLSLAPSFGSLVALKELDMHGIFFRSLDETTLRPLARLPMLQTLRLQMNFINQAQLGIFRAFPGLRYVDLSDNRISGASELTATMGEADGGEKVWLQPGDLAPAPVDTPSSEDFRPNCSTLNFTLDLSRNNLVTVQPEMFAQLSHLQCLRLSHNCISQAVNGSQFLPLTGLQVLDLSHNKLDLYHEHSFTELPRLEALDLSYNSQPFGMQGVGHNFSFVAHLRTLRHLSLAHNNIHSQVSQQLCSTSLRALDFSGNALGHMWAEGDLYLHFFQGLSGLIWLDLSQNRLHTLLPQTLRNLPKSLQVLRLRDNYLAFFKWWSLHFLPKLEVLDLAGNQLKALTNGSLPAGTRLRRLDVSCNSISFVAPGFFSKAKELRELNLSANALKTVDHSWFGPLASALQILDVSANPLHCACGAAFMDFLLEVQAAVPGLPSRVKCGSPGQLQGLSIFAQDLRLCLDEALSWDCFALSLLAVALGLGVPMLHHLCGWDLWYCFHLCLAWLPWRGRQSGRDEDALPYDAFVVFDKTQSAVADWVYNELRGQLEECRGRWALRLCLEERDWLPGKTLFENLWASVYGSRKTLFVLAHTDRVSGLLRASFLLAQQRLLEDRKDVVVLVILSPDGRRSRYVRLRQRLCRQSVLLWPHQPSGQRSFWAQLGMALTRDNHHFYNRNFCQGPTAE
Assay type: cell-based
Outline: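 Antagonist mode in HEK293-Blue hTLR9 reporter cells (SEAP under NF-κB/AP-1 sites), stimulated with ODN2006 added from a 20 uM solution. Serially diluted compound (1% DMSO final) was incubated 20 hrs at 37° C. Supernatant SEAP was developed with QUANTI-Blue for 2 h at 37° C and read at 620˜655 nm.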

Row | Compound | IC50 [nM]
1 | C[C@H]1CN(c2ccc(C#N)c3ncccc23)C[C@H]2c3ccc(N4CCNCC4)cc3CN12 [Example 2, 5-[(4S,10bR)-4-methyl-8-piperazin-1-yl-3,4,6,10b-tetrahydro-1H-pyrazino[2,1-a]isoindol-2-yl]quinoline-8-carbonitrile] | 125
2 | C[C@@H]1CN(c2ccc(C#N)c3ncccc23)C[C@@H]2c3ccc(N[C@@H]4CNCCOC4)cc3CN12 [Example 56A, 5-[(4R,10bS)-4-methyl-8-[[(6R)-1,4-oxazepan-6-yl]amino]-3,4,6,10b-tetrahydro-1H-pyrazino[2,1-a]isoindol-2-yl]quinoline-8-carbonitrile] | 83
3 | C[C@@H]1CN(c2ccc(C#N)c3ncccc23)C[C@@H]2c3ccc(NCCN4CC[C@H](O)C4)cc3CN12 [Example 68, 5-[(4R,10bS)-8-[2-[(3S)-3-hydroxypyrrolidin-1-yl]ethylamino]-4-methyl-3,4,6,10b-tetrahydro-1H-pyrazino[2,1-a]isoindol-2-yl]quinoline-8-carbonitrile] | 73.5
4 | C[C@@H]1CN(c2ccc(C#N)c3ncccc23)C[C@@H]2c3ccc(N4C[C@@H]5CNCCN5C4=O)cc3CN12 [Example 71, 5-[(4R,10bS)-8-[(8aS)-3-oxo-1,5,6,7,8,8a-hexahydroimidazo[1,5-a]pyrazin-2-yl]-4-methyl-3,4,6,10b-tetrahydro-1H-pyrazino[2,1-a]isoindol-2-yl]quinoline-8-carbonitrile] | 115
5 | N#Cc1ccc(N2CCN3Cc4cc(N5CCNCC5)ccc4C3C2)c2cccnc12 (stereo not shown) [Example 3, 5-(8-piperazin-1-yl-3,4,6,10b-tetrahydro-1H-pyrazino[2,1-a]isoindol-2-yl)quinoline-8-carbonitrile] | 87.7
6 | Cc1ccc(N2C[C@@H](C)N3Cc4cc(N[C@H]5CNC[C@H]5F)ccc4[C@H]3C2)c2cccnc12 [Example 75, (4R,10bS)—N-[(3S,4R)-4-fluoropyrrolidin-3-yl]-4-methyl-2-(8-methyl-5-quinolyl)-3,4,6,10b-tetrahydro-1H-pyrazino[2,1-a]isoindol-8-amine] | 203

Further lines, results first:

Row | IC50 [nM] | Compound
7 | 150 | Cc1ccc(N2C[C@@H](C)N3Cc4cc(N[C@H]5CNC[C@H]5F)ccc4[C@H]3C2)c2nccnc12 [Example 76, (4R,10bS)—N-[(3S,4R)-4-fluoropyrrolidin-3-yl]-4-methyl-2-(8-methylquinoxalin-5-yl)-3,4,6,10b-tetrahydro-1H-pyrazino[2,1-a]isoindol-8-amine]
8 | 186 | C[C@@H]1CN(c2ccc(C#N)c3ncccc23)C[C@@H]2c3cc(F)c(N4CC5(CNC5)C4)cc3CN12 [Example 84, 5-[(4R,10bS)-8-(2,6-diazaspiro[3.3]heptan-2-yl)-9-fluoro-4-methyl-3,4,6,10b-tetrahydro-1H-pyrazino[2,1-a]isoindol-2-yl]quinoline-8-carbonitrile]
9 | 141 | C[C@@H]1CN(c2ccc(C(F)(F)F)c3nccnc23)C[C@@H]2c3ccc(N[C@H]4CNC[C@H]4F)cc3CN12 [Example 77, (4R,10bS)—N-[(3S,4R)-4-fluoropyrrolidin-3-yl]-4-methyl-2-[8-(trifluoromethyl)quinoxalin-5-yl]-3,4,6,10b-tetrahydro-1H-pyrazino[2,1-a]isoindol-8-amine]
10 | 126 | C[C@@H]1CN(c2ccc(C#N)c3ncccc23)C[C@@H]2c3cccc(N[C@H]4CNC[C@H]4F)c3CN12 [Example 81, 5-[(4R,10bS)-7-[[(3S,4R)-4-fluoropyrrolidin-3-yl]amino]-4-methyl-3,4,6,10b-tetrahydro-1H-pyrazino[2,1-a]isoindol-2-yl]quinoline-8-carbonitrile]
